The record followed here is patent US10667515B2, “(S)-5-ethynyl-anabasine, derivatives thereof, and related compositions and methods of making and using” (priority 2016, dated 2020).

“Also recorded” adds a separate entry of the source. Counter-ions that a name gives are not always drawn. Like-named read-outs stand apart in the source and are kept apart here.

In assay [1] the target is T1, Asu-ACR-16 (Ascaris suum (Pig roundworm) (Ascaris lumbricoides), UniProt F1KYJ9). Briefly: cell-based. Format: cell-based. The conditions noted are these: for Emax: read-out: maximum response (Imax); for maximum response (Imax): normalized to peak current of 100 μM ACh. The protocol: Full-length Asu-acr-16 cRNA and ancillary gene Asu-ric-3 cRNA (UniProtKB Accession No. F1L1D9) were prepared as previously described (Zheng et al. (2016), supra). A cRNA mixture of 25 ng Asu-acr-16 and 5 ng Asu-ric-3 cRNA in 50 nL RNAse-free water was injected into de-folliculated Xenopus laevis oocytes (Ecocyte Bioscience, Austin, Tex., USA). The injected oocytes were incubated in an incubation solution (100 mM NaCl, 2 mM KCl, 1.8 mM CaCl2.2H2O, 1 mM MgCl2.6H20, 5 mM HEPES, 2.5 mM Na-pyruvate, 100 U/mL penicillin, and 100 μg/mL streptomycin, pH 7.5) at 19° C. for 4-8 days, after which 100 μM BAPTA-AM was added three hours before recording.
T1 sequence (F1KYJ9 1-504): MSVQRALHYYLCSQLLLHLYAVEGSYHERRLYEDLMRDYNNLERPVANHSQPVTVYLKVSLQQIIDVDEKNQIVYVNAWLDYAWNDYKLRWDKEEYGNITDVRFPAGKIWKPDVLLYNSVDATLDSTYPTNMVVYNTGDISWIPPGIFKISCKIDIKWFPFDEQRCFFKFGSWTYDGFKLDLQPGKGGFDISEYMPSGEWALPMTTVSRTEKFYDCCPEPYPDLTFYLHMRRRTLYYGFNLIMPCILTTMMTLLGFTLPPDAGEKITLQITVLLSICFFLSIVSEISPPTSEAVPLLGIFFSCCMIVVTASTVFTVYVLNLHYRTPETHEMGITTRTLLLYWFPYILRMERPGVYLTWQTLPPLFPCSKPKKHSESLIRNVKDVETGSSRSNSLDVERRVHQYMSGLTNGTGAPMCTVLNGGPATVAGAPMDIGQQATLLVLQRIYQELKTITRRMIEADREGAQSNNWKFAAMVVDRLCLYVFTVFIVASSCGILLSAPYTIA
Two-electrode voltage clamp electrophysiology was used to determine agonist concentration-current-response plots to estimate the potencies (EC50s) of the agonists. The oocytes were kept in a recording solution (100 mM NaCl, 2.5 mM KCl, 1 mM CaCl2.2H2O, and 5 mM HEPES, pH 7.3) and clamped to −60 mV during recording.
Inward current signals in the oocytes were induced by the addition of chemicals that acted as agonists opening the nicotinic ion-channel receptors. […] An Axoclamp 2B amplifier (Molecular Devices, Sunnyvale, Calif.) was used to record the currents that were acquired with Clampex 9.2 software (Molecular Devices) and analyzed using GraphPad Prism 5.0 (Graphpad Software, Inc., La Jolla, Calif.).
Recording solution was then used to wash out the drug from the oocyte for 3 min prior to application of the next chemical perfusion.
Nicotine derivatives that elicited inward currents at 100 μM were classified as agonists. Increasing concentrations of each nicotine derivative were applied for 10 sec with 3-min wash intervals to determine the dose-response relationship of each agonist. […] Peak responses were recorded and normalized. […] The EC50 and Imax of each agonist were compared using the unpaired student's t-test. P<0.05 was used to evaluate the statistical difference.

In assay [2] the target is T1, Asu-ACR-16. Briefly: Two-electrode voltage clamp inhibition of the ACh response of Asu-ACR-16 expressed in Xenopus laevis oocytes. It is filed as cell-based. Background: In two-electrode clamp one electrode senses voltage and the other passes current.
[3] abbreviates: agonist dose-response, mean±S.E.M., N=5.
The mark [4] stands for this setting: agonist, currents normalized to 100 μM ACh, oocytes clamped to −60 mV, mean±S.E.M., N=5.
The mark [5] stands for this setting: inward currents at 100 μM classify as agonist.
Setting [6] is: inhibition of ACh response, N=5.

As to `CN1CCCC1c1cccnc1.O=C(O)C(O)C(O)C(=O)O` (single isomer, unassigned; (-)) [(S)-nicotine, (−)-nicotine hydrogen tartrate salt], on Asu-ACR-16 [1], the “Hill slope (nH)” value came out at 3.39 ± 0.36 and the “agonist activity (in words)” value is given as “potent agonist”.
In general, EC50 refers to the concentration at which the effect is half-maximal. With `Cc1cncc(C2CCCN2C)c1` (stereo not shown) [5-methyl-nicotine, 5-methylnicotine], the “Hill slope (nH)” value on Asu-ACR-16 [1] (setting [3]) was 2.09 ± 0.14. A half-maximal response at Asu-ACR-16 [1] (setting [4]) (EC50) required 990 ± 170 nM. Further, on Asu-ACR-16 [1], the Emax was 76 ± 1.22%.
As a reminder, the IC50 is the midpoint of a concentration-inhibition curve. On to `NC(=O)c1ccc(N)nc1` [6-AN, 6-aminonicotinamide], for which the “Hill slope (nH)” value on Asu-ACR-16 [1] (setting [3]) is given as 10.10 ± 0.15. Moreover, the “agonist activity (in words)” value on Asu-ACR-16 [1] (setting [5]) is listed as “little agonist activity”. The Emax on Asu-ACR-16 [1] was determined as 6.29 ± 0.62%. The half-maximal inhibitory concentration (IC50) against Asu-ACR-16 [2] is 2000 ± 410 nM. The “inhibition of ACh response (in words)” value at Asu-ACR-16 [2] (100 μM derivative co-applied with 100 μM ACh) is reported as “most potent inhibitor”. In addition, at Asu-ACR-16 [2] (ACh dose-response in presence of 1 μM 6-AN, concentration- and voltage-dependent inhibition), the “mode of antagonism (in words)” value is given as “non-competitive antagonist”. At Asu-ACR-16 [2] (setting [6]), this compound registered an Imax of 94.88±1.49% and a nH of 1.02±0.05.
As for `Cc1ccc(C2CCCN2C)cn1` (stereo not shown) [6-methyl-nicotine, 6-methylnicotine], on Asu-ACR-16 [1] (setting [3]), the “Hill slope (nH)” value was found to be 3.25 ± 0.25. Further, the Emax on Asu-ACR-16 [1] stood at 69.8 ± 1.56%.
In the case of `CN1CCC[C@H]1c1ccc[n+](C)c1.[I-]` [(S)-1-methyl-nicotinium, (S)-1-methylnicotinium iodide], the “agonist activity (in words)” value at Asu-ACR-16 [1] (setting [5]) is “did not act as agonists”.
`C[N+]1(C)CCC[C@H]1c1cccnc1.[I-]` [(S)-1′-methyl-nicotinium, (S)-1′-methylnicotinium iodide]: the “Hill slope (nH)” value on Asu-ACR-16 [1] (setting [3]) turned out to be 3.52 ± 0.26. Further, on Asu-ACR-16 [1] (mean±S.E.M., N=5), the “maximum response (Imax)” value is on record as 93.38 ± 5.25%.
The matching figures for `Brc1cncc([C@@H]2CCCCN2)c1` [(S)-5-bromo-anabasine, (S)-5-bromoanabasine]: 4.19 ± 1.58 and 80.69 ± 2.87%.
`CN1CCC[C@H]1c1cncc(Br)c1` [(S)-5-bromo-nicotine, (S)-5-bromonicotine]: the “Hill slope (nH)” value at Asu-ACR-16 [1] (setting [3]) stood at 2.46 ± 0.21. Also, the response at Asu-ACR-16 [1] (setting [4]) was half-maximal at 2040 ± 120 nM (EC50). The Emax on Asu-ACR-16 [1] was found to be 69.7 ± 3.28%.
Regarding `C#Cc1cncc([C@@H]2CCCCN2)c1` [(S)-5-ethynyl-anabasine], at Asu-ACR-16 [1] (setting [3]), the “Hill slope (nH)” value was 1.81 ± 0.24. Further, the “maximum response (Imax)” value on Asu-ACR-16 [1] (mean±S.E.M., N=5) amounted to 79.33 ± 3.75%. Further, on Asu-ACR-16 [1] (ratio of EC50 values), the “EC50 lower (more potent) than (S)-nicotine” value is on record as 44 times.
Consider `C#Cc1cncc([C@@H]2CCCN2C)c1` [(S)-SIB 1508Y, SIB 1508Y maleate], for which the “Hill slope (nH)” value at Asu-ACR-16 [1] (setting [3]) came out at 0.94 ± 0.04. For the same compound, the response on Asu-ACR-16 [1] (setting [4]) was half-maximal at 370 ± 100 nM (EC50). For the same compound, the “maximum response (Imax)” value on Asu-ACR-16 [1] (mean±S.E.M., N=5) is reported as 100.1 ± 4.36%.
In the case of `c1cncc([C@@H]2CCCCN2)c1` [(S)-anabasine], the “Hill slope (nH)” value on Asu-ACR-16 [1] (setting [3]) came out at 2.26 ± 0.20. For the same compound, the “maximum response (Imax)” value on Asu-ACR-16 [1] (mean±S.E.M., N=5) came to 84.82 ± 4.20%.
As to `CN1C(=O)CC[C@H]1c1cccnc1` [(S)-cotinine, (−)-cotinine], at Asu-ACR-16 [1] (setting [5]), the “agonist activity (in words)” value is listed as “did not act as agonists”.
`CN1CCC[C@H]1c1cccnc1` [(S)-nicotine, (−)-nicotine hydrogen tartrate salt]: at Asu-ACR-16 [1], a half-maximal response (EC50) required 6210 ± 560 nM and the Emax came out at 82.4 ± 2.52%.
Regarding `CN1CCC[C@H]1c1cncc(C=O)c1` [(S)-nicotine-5-carboxaldehyde], the “Hill slope (nH)” value at Asu-ACR-16 [1] (setting [3]) is given as 8.61 ± 4.04. Besides, the EC50 at Asu-ACR-16 [1] (setting [4]) stood at 11500 ± 630 nM. Besides, on Asu-ACR-16 [1] (mean±S.E.M., N=5), the “maximum response (Imax)” value was 62.20 ± 6.80%.
As for `CC(=O)OCC[N+](C)(C)C.[Cl-]` [ACh, acetylcholine chloride], the “Hill slope (nH)” value at Asu-ACR-16 [1] (setting [3]) is 2.93 ± 0.13.
With `CN1CCCCC1c1cccnc1` (stereo not shown) [N-methyl-anabasine, N-methyl anabasine], the “agonist activity (in words)” value on Asu-ACR-16 [1] (setting [5]) is “inactive; also recorded: did not act as agonists”.
As to `CCN1CCCC1c1cccnc1` (stereo not shown) [homonicotine], the “Hill slope (nH)” value at Asu-ACR-16 [1] (setting [3]) is 6.78 ± 2.50. Also, the “maximum response (Imax)” value on Asu-ACR-16 [1] (mean±S.E.M., N=5) is recorded as 22.01 ± 1.39%.
Regarding `c1cncc([C@@H]2CCCN2)c1` [nornicotine, (+)-nornicotine], the “Hill slope (nH)” value on Asu-ACR-16 [1] (setting [3]) amounted to 3.25 ± 0.49. Besides, at Asu-ACR-16 [1], the Emax is 62.6 ± 3.42%.
